We go through 33 compounds from a melting point compilation (Tetko et al.; mined from patent text by program, amines drawn as free bases though some values may be those of a salt).

`COCC(COC)Oc1cc(Oc2ccc(S(C)(=O)=O)nc2)cc2cc(C3=NCC(CCO)S3)[nH]c12` (stereo not drawn) returned a melting point of 69 to 71 °C. `COc1cccc2c1CCC(C#N)C2=O` (stereo not drawn): the melting point was 120 to 122 °C.

The compound `Cc1[nH]n(C2CCCC2C)c2nc(-c3ccncc3)nc(=O)c1-2` (stereo not drawn) yielded a melting point of 290 to 291 °C. The compound `Nc1cc(OCC2CCCCO2)c(C(=O)O)cc1Cl` (stereo not drawn) had a melting point of 146 to 148 °C. Consider `O=C(N1CC([N+](=O)[O-])([N+](=O)[O-])C1)C(F)(F)F`, for which the melting point fell in the range of 70 to 71 °C. The compound `CCCCCCCCCC(=O)Oc1ccc2c(N3CCN(CCCC(=O)c4ccc(F)cc4)CC3)noc2c1` registered a melting point of 69 to 71 °C. As for `SC1CCn2c(CCc3ccccc3)nc3cccc1c32` (stereo not drawn), the figure is 75.7 to 78.8 °C; as for `CC(=O)Oc1ccc(C(C)(C)C)cc1C1(OC(C)=O)C(=O)c2ccccc2C1=O`, 195 to 196 °C. `C(=C1CNCCN1)c1ccccc1` showed a melting point of 80 to 81 °C. As for `N#Cc1cc(/C=C/C(c2cc(Cl)c(Cl)c(Cl)c2)C(F)(F)F)ccc1-n1cnc(N(C(=O)C2CC2)C(=O)C2CC2)n1` (stereo not drawn), the figure is 104 to 107 °C. Under `O=S(=O)(Nc1ccc2c(OCC3(c4cccc(C(F)(F)F)c4)N=CNO3)cccc2c1)C(F)(F)F` (stereo not drawn) stands 107 to 108 °C; under `CCc1nc(COc2ccc([N+](=O)[O-])cc2)cs1`, 79 to 80 °C; under `CCOP(=O)(CCN1CC(O)CNc2c1c(=O)c2=O)OCC` (stereo not drawn), 169 to 171 °C. As for `CC1(C)C=C(CN2C/C(=C\c3ccc(F)cc3)C(=O)/C(=C/c3ccc(F)cc3)C2)C(C)(C)N1O`, the figure is 142 to 144 °C; as for `Cc1cc(Cn2nc(C(F)(F)F)cc2C(F)(F)F)ccc1NC(=O)c1cccc(I)c1C(=O)NC(C)(C)CS(C)(=O)=O`, 104 to 107 °C; as for `NNC(=O)c1ccc2occ(-c3cccc(OC(F)(F)F)c3)c2c1`, 137 to 138 °C. The compound `Cc1cc(C)c2c(c1C)O[C@@H](C)[C@H]2c1ccc(C(C)C)cc1` (relative stereo) displayed a melting point of 79 to 80 °C. `CN(C)C(=O)N(C)c1nnc(S(=O)(=O)N(C)C)s1` yielded a melting point of 101 to 103 °C. `N#Cc1ccccc1-c1ccc(CO)cn1` gave a melting point of 152 to 153 °C. `CC(=NNc1ccccc1)c1c(-c2ccccc2)noc1C` gave a melting point of 129 to 133 °C. Consider `O=C(Nc1ccc2cc(CN3CCCC3)cnc2c1)c1ccc(-c2ccccc2)nc1`, for which the melting point fell in the range of 208 to 210 °C. In the case of `Cc1nc(-c2ccccc2)nc(-c2ccc(O)c(N)c2)c1C(=O)N1CCN(C)CC1`, the melting point lay within 129 to 131 °C. With `O=[N+]([O-])c1cc(CO)c(CO)cc1Oc1ccc(F)cc1F`, the melting point turned out to be 124 °C. `CC(C)(C)c1ccc(C(=O)CCCN2CCC(O)CC2)cc1` displayed a melting point of 63 to 65 °C. `CC1Nc2ccc3c(c2N1C)OC(CN1CC=C(c2c[nH]c4ccccc24)CC1)CO3` (stereo not drawn) had a melting point of 186 to 188 °C. As for `COc1cccc(CNc2nccc(-c3cc(N4CCN(CCCN5CCCC5)CC4)c4cc(OC)ccc4c3)n2)c1`, the melting point lay in the range of 160 to 167 °C. The compound `O=C(NC(=O)c1c(Cl)cccc1Cl)Nc1ccc(Cl)c(Cl)c1` came in with a melting point of 232 °C. On to `NS(=O)(=O)c1ccc(CC(=O)C=CC(=O)O)cc1`, for which the melting point is 180 to 181 °C. In turn, `O=C(N[C@@H](Cc1c[nH]c2ccccc12)C(=O)O)c1ccc([N+](=O)[O-])cc1` gave a melting point of 115 to 117 °C.

For the compound `O=S1(=O)NC(C2CCCCC2)=Nc2cccc(-c3ccccn3)c21`, the melting point lay in the range of 200 to 203 °C. `CC(C)(C)OC(=O)NCC(=O)OCCCCNc1cccc2c1C(=O)c1ccccc1C2=O` came in with a melting point of 70 °C. Consider `CC1(C)c2cc(OCc3ccccc3)ccc2OC1CO` (stereo not drawn), for which the melting point was in the range of 55 to 58 °C. `COc1ccc(-c2cc(-c3ccc(OC)c(OC)c3)c(C#N)c(C)n2)cc1` returned a melting point of 187 to 188 °C.
